{"source": "patent US20160060660A1", "about": "“BIOTECHNOLOGICAL PRODUCTION OF ITACONIC ACID” (UNIVERSITÉ DU LUXEMBOURG, priority 2013, published 2016)", "key": {"[1]": {"system": "Mycobacterium tuberculosis H37Rv", "assay_type": "cell-based"}, "[2]": {"system": "Salmonella enterica serovar Typhimurium", "experimental": "Salmonella enterica serovar Typhimurium bacteria were grown in liquid medium as detailed in the text in the presence different concentrations of itaconic acid or cis-aconitate (5, 10, 50, 100 mM). Growth was measured as optical density (OD) at indicated time points."}, "[3]": {"system": "human PBMCs-derived macrophages", "test": "NO donor treatment of human PBMCs-derived macrophages, itaconic acid levels", "assay_type": "cell-based", "details": "1, 10, 100 μM, with or without LPS, 12 h", "protocol": "Human PBMCs were seeded and differentiated into macrophages as described above. Diethylamine NONOate (DEA NONOate, Sigma), an intracellular NO donor, was added at different concentrations (1, 10, 100 μM) alone or together with LPS (100 μg/ml). After 12 h of incubation, the metabolites were extracted.\nAfter 12 h, 180 μl of medium was harvested and combined with 20 μl of 1 mM NaOH on ice to stop the dissociation reaction. Levels of nitrite formed from the reaction with H2O were determined using the Griess assay. In brief, 50 μl of medium sample or nitrite IC standard (Sigma) was pipetted in triplicate in a 96-well plate. To each well, equal volumes of 1× Griess Reagent (Sigma) were added. Absorbance was read at 540 nm and nitrite concentrations were calculated."}, "Irg1 protein": {"molecular_target": "T1, Irg1 protein (Mus musculus, UniProt P54987)", "T1 construct": "made in house; host or cells: HEK293T", "T1 sequence (P54987 1-488)": "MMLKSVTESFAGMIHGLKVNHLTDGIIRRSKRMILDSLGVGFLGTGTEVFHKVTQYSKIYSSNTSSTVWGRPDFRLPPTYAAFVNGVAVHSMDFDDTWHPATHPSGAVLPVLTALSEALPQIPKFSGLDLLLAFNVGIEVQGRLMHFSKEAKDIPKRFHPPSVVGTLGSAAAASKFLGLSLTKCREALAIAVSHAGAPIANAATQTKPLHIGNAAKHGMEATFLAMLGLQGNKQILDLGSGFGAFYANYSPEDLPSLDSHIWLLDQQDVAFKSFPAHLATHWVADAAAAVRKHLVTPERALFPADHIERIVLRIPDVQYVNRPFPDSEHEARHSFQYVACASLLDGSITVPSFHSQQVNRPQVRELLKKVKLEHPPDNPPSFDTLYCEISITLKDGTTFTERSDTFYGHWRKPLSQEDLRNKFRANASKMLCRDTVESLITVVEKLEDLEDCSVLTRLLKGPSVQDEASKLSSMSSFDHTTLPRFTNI", "test": "Cis-aconitate decarboxylase activity of extracts and purified fractions from HEK293T cells transfected with pCMV6-Entry-Irg1", "assay_type": "biochemical", "details": "1 mM cis-aconitate, 30° C., 40 min", "protocol": "Protein concentration was measured by the Bradford assay using Bradford reagent (Bio-Rad). […] Reactions were stopped by addition of 900 μl methanol/water (8:1) mix. […] (Labconco)."}, "human IRG1": {"molecular_target": "T2, human IRG1 (Homo sapiens, UniProt A6NK06)", "T2 construct": "made in house", "T2 sequence (A6NK06 1-481)": "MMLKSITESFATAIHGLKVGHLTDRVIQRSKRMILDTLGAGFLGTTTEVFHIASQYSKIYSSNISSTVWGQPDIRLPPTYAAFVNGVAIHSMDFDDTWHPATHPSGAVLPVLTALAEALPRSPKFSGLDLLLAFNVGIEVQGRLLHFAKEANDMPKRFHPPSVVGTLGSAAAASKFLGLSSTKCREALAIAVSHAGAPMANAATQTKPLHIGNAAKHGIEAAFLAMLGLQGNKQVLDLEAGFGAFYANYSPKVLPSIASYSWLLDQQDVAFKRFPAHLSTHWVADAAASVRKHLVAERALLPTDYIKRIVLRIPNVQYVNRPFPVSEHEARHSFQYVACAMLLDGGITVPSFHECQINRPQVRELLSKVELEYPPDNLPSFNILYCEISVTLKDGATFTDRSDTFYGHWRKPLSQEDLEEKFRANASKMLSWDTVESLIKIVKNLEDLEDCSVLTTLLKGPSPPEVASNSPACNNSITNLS", "test": "CAD activity assay, Michaelis-Menten kinetics of purified human IRG1", "assay_type": "biochemical", "details": "substrate cis-aconitic acid 0 to 1 mmol/l, pH=6.2, 37° C., read-out: Michaelis-Menten constant KM for itaconic acid formation", "protocol": "(§1) The purified proteins were then used for enzyme activity assays. Cis-aconitic acid was used as a substrate at concentrations in the range of 0 to 1 mmol*I^−1 at pH=6.2 and 37° C. To determine the time dependent itaconic acid production, itaconic acid level was measured after 5 and 15 min of incubation. To determine the correlation between itaconic acid production and IRG1 activity, the substrate concentrations were plotted against the rate of itaconic acid formation.\n(§2) Proteins produced in HEK293FT cells, which have been transfected with human and mouse pCMV6-Irg1 overexpression plasmid as well as pCMV6-Entry plasmid, were purified, separated on SDS-Page, detected with western blotting or silver staining and characterized with in-vitro enzyme assays.\n(§3) Enzyme solutions were used from F1 as well as F2 and cis-aconitic acid and citric acid were used as substrates. Sampling took place 5 min and 15 min after enzyme supplementation. 95 μl enzyme solution were transferred into sampling tubes containing 230 μl methanol at −20° C. and centrifuged for 10 min at 4° C. with 16,000×g. 290 μl were dried in glass vials under vacuum and analyzed with GC-MS. […] The kinetic parameter Km of the purified enzymes was determined with Michaelis-Menten model using the statistical tool R (R Development Core Team, 2011)."}, "murine IRG1": {"molecular_target": "T3, murine IRG1 (Mus musculus, UniProt P54987)", "T3 construct": "made in house", "T3 sequence (P54987 1-488)": "T1 sequence (P54987 1-488)", "test": "CAD activity assay, Michaelis-Menten kinetics of purified murine IRG1", "assay_type": "biochemical", "details": "substrate cis-aconitic acid 0 to 1 mmol/l, pH=6.2, 37° C., read-out: Michaelis-Menten constant KM for itaconic acid formation", "protocol": "as §1, §2, §3"}}, "note": "Like-named read-outs stand apart in the source and are kept apart here.", "data": [{"compound": "O=C(O)/C=C(/CC(=O)O)C(=O)O", "note": "[cis-aconitate, cis-aconitic acid, reference compound]", "values": [{"measurement": "effect on M. tuberculosis growth", "setting": "[1]; medium supplemented with cis-aconitate, acetate or glycerol", "value": "more pronounced growth"}, {"measurement": "effect on S. enterica growth", "setting": "[2]; medium supplemented with cis-aconitate, acetate", "value": "more pronounced growth"}]}, {"compound": "CCN(CC)/[N+]([O-])=N/O.CCNCC", "note": "[diethylamine NONOate, Diethylamine NONOate]", "values": [{"measurement": "effect on intracellular itaconic acid levels", "setting": "[3]", "value": "could not detect any effect"}]}, {"compound": "C=C(CC(=O)O)C(=O)O", "note": "[itaconic acid]", "values": [{"measurement": "concentration at which growth of M. tuberculosis was completely inhibited", "setting": "[1]", "value": "25 to 50", "unit": "mM"}, {"measurement": "effect on M. tuberculosis growth", "setting": "[1]; glycerol as carbon source", "value": "does not affect the bacterial growth"}, {"measurement": "concentration inhibiting M. tuberculosis growth", "setting": "[1]; glycerol with 0.1 μM propionate", "value": "5 to 10", "unit": "mM"}, {"measurement": "effect on S. enterica growth", "setting": "[2]; glucose as carbon source", "value": "does not affect the bacterial growth"}, {"measurement": "concentration at which significant effects on S. enterica growth were observed", "setting": "[2]; liquid medium with acetate as unique carbon source", "value": 10, "unit": "mM"}]}, {"compound": "FLAG-tagged Irg1 protein: FLAG-tagged Irg1 protein from HEK293T cells transfected with pCMV6-Entry-Irg1; presumably murine Irg1", "values": [{"measurement": "cis-aconitate decarboxylase activity", "setting": "Irg1 protein", "value": "catalyzed the conversion of cis-aconitate to itaconic acid"}]}, {"compound": "IRG1 human: Flag-tagged human immune-responsive gene 1 protein (SEQ ID NO 2) purified from transfected HEK293T cells", "values": [{"measurement": "Km", "setting": "human IRG1", "value": 30, "unit": "µM"}]}, {"compound": "IRG1 mouse: Flag-tagged mouse immune-responsive gene 1 protein (SEQ ID NO 4) purified from transfected HEK293T cells", "values": [{"measurement": "Km", "setting": "murine IRG1", "value": 70, "unit": "µM"}]}]}
